Assay [1] deals with T1, ROS1-G2032R kinase domain (Homo sapiens, UniProt P08922, G2032R).
T1 construct: TRKA-wt (1 nM, BPS Bio, 40280) kinase domains in buffer; purchased SignalChem R14-12BG
The assay can be described thus: Biochemical kinase assay, ROS1-G2032R. The conditions noted are these: 2 mM ATP substrate solution, read-out: Ki^app ROS1-G2032R. The procedure, abridged: (§1)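 Apparent Ki values come from fitting initial reaction rates against inhibitor concentration to the Morrison equation. Rates were taken from the linear phase of fluorogenic substrate phosphorylation (AQT0101 for ALK and ROS1, AQT0104 for TRKA; 26 μM in substrate solution with 2 mM ATP), monitored at 485 nm over 120 min at 30° C.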

The next assay deals with T2, TRKA-wt kinase domain (Homo sapiens, UniProt P04629).
T2 construct: TRKA-wt (1 nM, BPS Bio, 40280) kinase domains in buffer; purchased BPS Bio 40280
The assay can be described thus: Biochemical kinase assay, TRKA-wt. The note with it: 2 mM ATP substrate solution, read-out: Ki^app TRKA-wt. The procedure, abridged:
as §1

A further assay has as its target T3, ROS1-wt kinase domain (Homo sapiens, UniProt P08922).
T3 construct: TRKA-wt (1 nM, BPS Bio, 40280) kinase domains in buffer; purchased Carna 08-163
Kind of assay: Biochemical kinase assay, ROS1-wt. The conditions noted are these: 2 mM ATP substrate solution, read-out: Ki^app ROS1-wt. The procedure, abridged:
as §1

Assay [2] concerns the target T4, ALK L1196M/G1202R kinase domain (Homo sapiens, UniProt Q9UM73, G1202R/L1196M).
T4 construct: TRKA-wt (1 nM, BPS Bio, 40280) kinase domains in buffer; purchased SignalChem A19-12NG
The assay can be described thus: Biochemical kinase assay, ALK L1196M/G1202R. The note with it: 2 mM ATP substrate solution, read-out: Ki^app ALK-L1196M-G1202R. The procedure, abridged:
as §1

Another assay concerns the target T5, ALK-wt kinase domain (Homo sapiens, UniProt Q9UM73).
T5 construct: TRKA-wt (1 nM, BPS Bio, 40280) kinase domains in buffer; purchased Carna 08-518
The assay can be described thus: Biochemical kinase assay, ALK-wt. The note with it: 2 mM ATP substrate solution, read-out: Ki^app ALK-wt. The method, boiled down: as §1

On to `Cc1nc2c(s1)Cc1nnn(CC3CC3)c1-c1cnc(N)c(c1)O[C@H](C)c1cc(F)ccc1-2` [Compound 114], for which the Ki in assay [1] is < 50 nM; at TRKA-wt kinase domain, 50 to 500 nM; on ROS1-wt kinase domain it was < 50 nM; in assay [2] it was < 50 nM; on ALK-wt kinase domain, < 50 nM.

As for `C[C@H]1Oc2cc(cnc2N)-c2c(nnn2CC2CC2)Cc2cccnc2-c2ccc(F)cc21` [Compound 116], the Ki in assay [1] was < 50 nM; on TRKA-wt kinase domain it was 50 to 500 nM; at ROS1-wt kinase domain, < 50 nM; in assay [2] it was < 50 nM; at ALK-wt kinase domain, < 50 nM.

For `C[C@H]1Oc2cc(cnc2N)-c2c(C#N)nn(C)c2Cc2ccccc2-c2ccc(F)cc21` [Compound 117], the Ki in assay [1] is 50 to 500 nM; on TRKA-wt kinase domain, > 500 nM; on ROS1-wt kinase domain, < 50 nM; in assay [2], < 50 nM; on ALK-wt kinase domain it was < 50 nM.

With `CC(C)n1nc2c(c1C#N)-c1cnc(N)c(c1)O[C@H](C)c1cc(F)ccc1-n1nccc1C2` [Compound 118], the Ki in assay [1] is > 500 nM; at TRKA-wt kinase domain, < 50 nM; on ROS1-wt kinase domain it was < 50 nM; in assay [2], 50 to 500 nM; on ALK-wt kinase domain, < 50 nM.

As to `CCn1nc2c(c1C#N)-c1cnc(N)c(c1)O[C@H](C)c1cc(F)ccc1-n1nccc1C2` [Compound 119], the Ki is 50 to 500 nM in assay [1]; < 50 nM at TRKA-wt kinase domain; < 50 nM at ROS1-wt kinase domain; < 50 nM in assay [2]; < 50 nM on ALK-wt kinase domain.

`CCc1noc2c1-c1cnc(N)c(c1)O[C@H](C)c1cc(F)ccc1-c1nncn1C2` [Compound 120]: the Ki in assay [1] was 50 to 500 nM; on TRKA-wt kinase domain, 50 to 500 nM; on ROS1-wt kinase domain it was < 50 nM; in assay [2], 50 to 500 nM; at ALK-wt kinase domain, < 50 nM.

`C[C@H]1Oc2cc(cnc2N)-c2c(cnn2CC2CC2)Cc2cn(C)nc2-c2ccc(F)cc21` [Compound 121]: the Ki in assay [1] is < 50 nM; on TRKA-wt kinase domain, 50 to 500 nM; at ROS1-wt kinase domain, < 50 nM; in assay [2], < 50 nM; on ALK-wt kinase domain, < 50 nM.

Take `C[C@H]1Oc2cc(cnc2N)-c2c(nnn2CC2CC2)Cc2cc(C(F)F)nn2-c2ccc(F)cc21` [Compound 122]: the Ki in assay [1] is < 50 nM; at TRKA-wt kinase domain, 50 to 500 nM; on ROS1-wt kinase domain it was < 50 nM; in assay [2] it was < 50 nM; at ALK-wt kinase domain, < 50 nM.

`C[C@H]1Oc2cc(cnc2N)-c2c(c(C#N)nn2CC2CC2)Cc2cccnc2-c2ccc(F)cc21` [Compound 123]: the Ki in assay [1] is < 50 nM; on TRKA-wt kinase domain, > 500 nM; at ROS1-wt kinase domain, < 50 nM; in assay [2], < 50 nM; on ALK-wt kinase domain, < 50 nM.

On to `COc1cc2n(n1)-c1ccc(F)cc1[C@@H](C)Oc1cc(cnc1N)-c1c(c(C)nn1CC1CC1)C2` [Compound 124], for which the Ki in assay [1] is < 50 nM; on TRKA-wt kinase domain it was 50 to 500 nM; at ROS1-wt kinase domain it was < 50 nM; in assay [2], < 50 nM; at ALK-wt kinase domain, < 50 nM.

As for `Cc1cc2n(n1)-c1ccc(F)cc1COc1cc(cnc1N)-c1c(cnn1CC1CC1)C2` [Compound 126], the Ki in assay [1] is < 50 nM; on TRKA-wt kinase domain it was > 500 nM; on ROS1-wt kinase domain it was < 50 nM; in assay [2], < 50 nM; on ALK-wt kinase domain, < 50 nM.

Regarding `C[C@H]1Oc2cc(cnc2N)-c2c(nnn2CC2CC2)Cc2cc(C(F)(F)F)nn2-c2ccc(F)cc21` [Compound 128], the Ki was < 50 nM in assay [1]; 50 to 500 nM on TRKA-wt kinase domain; < 50 nM at ROS1-wt kinase domain; < 50 nM in assay [2]; < 50 nM at ALK-wt kinase domain.

As to `C[C@H]1Oc2cc(cnc2N)-c2c(cnn2CC2CC2)Cc2cc(C(F)F)nn2-c2ccc(F)cc21` [Compound 130], the Ki in assay [1] is < 50 nM; at TRKA-wt kinase domain it was 50 to 500 nM; at ROS1-wt kinase domain, < 50 nM; in assay [2], < 50 nM; at ALK-wt kinase domain, < 50 nM.

On to `C[C@H]1Oc2cc(cnc2N)-c2c(C#N)nn(C)c2Cc2cc(C(F)F)nn2-c2ccc(F)cc21` [Compound 132], for which the Ki in assay [1] was < 50 nM; on TRKA-wt kinase domain it was 50 to 500 nM; on ROS1-wt kinase domain it was < 50 nM; in assay [2], < 50 nM; at ALK-wt kinase domain it was < 50 nM.

As for `C[C@H]1Oc2cc(cnc2N)-c2c(c(Cl)nn2CC2CC2)Cc2cn(C)nc2-c2ccc(F)cc21` [Compound 133], the Ki was 50 to 500 nM in assay [1]; > 500 nM on TRKA-wt kinase domain; < 50 nM at ROS1-wt kinase domain; < 50 nM in assay [2]; < 50 nM at ALK-wt kinase domain.

As to `Cc1nc2c(s1)Cc1c(C)nn(CC3CC3)c1-c1cnc(N)c(c1)O[C@H](C)c1cc(F)ccc1-2` [Compound 134], the Ki in assay [1] is < 50 nM; on TRKA-wt kinase domain, 50 to 500 nM; at ROS1-wt kinase domain, < 50 nM; in assay [2], < 50 nM; at ALK-wt kinase domain it was < 50 nM.

Take `Cc1nn(CC2CC2)c2c1Cc1cccnc1-c1ccc(F)cc1[C@@H](C)Oc1cc-2cnc1N` [Compound 135]: the Ki was < 50 nM in assay [1]; 50 to 500 nM at TRKA-wt kinase domain; < 50 nM on ROS1-wt kinase domain; < 50 nM in assay [2]; < 50 nM on ALK-wt kinase domain.

`C[C@H]1Oc2cc(cnc2N)-c2c(cnn2CC2CC2)Cc2cccnc2-c2ccc(F)cc21` [Compound 137]: the Ki was < 50 nM in assay [1]; 50 to 500 nM at TRKA-wt kinase domain; < 50 nM on ROS1-wt kinase domain; < 50 nM in assay [2]; < 50 nM at ALK-wt kinase domain.

`Nc1ncc2cc1OCc1cc(F)ccc1-n1nc(C(F)F)cc1Cc1cnn(CC3CC3)c1-2` [Compound 138]: the Ki in assay [1] is < 50 nM; at TRKA-wt kinase domain, > 500 nM; at ROS1-wt kinase domain, < 50 nM; in assay [2], < 50 nM; on ALK-wt kinase domain, < 50 nM.

As to `C[C@H]1Oc2cc(cnc2N)-c2c(cnn2C2COC2)Cc2cn(C)nc2-c2ccc(F)cc21` [Compound 139], the Ki was < 50 nM in assay [1]; 50 to 500 nM on TRKA-wt kinase domain; < 50 nM on ROS1-wt kinase domain; < 50 nM in assay [2]; < 50 nM at ALK-wt kinase domain.

Turning to `CCn1cc2c(n1)-c1ccc(F)cc1[C@@H](C)Oc1cc(cnc1N)-c1c(cnn1CC1CC1)C2` [Compound 140], the Ki in assay [1] was < 50 nM; on TRKA-wt kinase domain it was 50 to 500 nM; at ROS1-wt kinase domain, < 50 nM; in assay [2] it was < 50 nM; on ALK-wt kinase domain, < 50 nM.

As to `Cc1cc2n(n1)-c1ccc(F)cc1[C@@H](C)Oc1cc(cnc1N)-c1c(c(C)nn1CC1CC1)C2` [Compound 141], the Ki in assay [1] is < 50 nM; on TRKA-wt kinase domain, 50 to 500 nM; on ROS1-wt kinase domain, < 50 nM; in assay [2], < 50 nM; on ALK-wt kinase domain, < 50 nM.

Regarding `C[C@H]1Oc2cc(cnc2N)-c2c(C#N)nn(C)c2Cc2csnc2-c2ccc(F)cc21` [Compound 143], the Ki is < 50 nM in assay [1]; 50 to 500 nM at TRKA-wt kinase domain; < 50 nM at ROS1-wt kinase domain; < 50 nM in assay [2]; < 50 nM on ALK-wt kinase domain.

For the compound `COc1cc2n(n1)-c1ccc(F)cc1[C@@H](C)Oc1cc(cnc1N)-c1c(nnn1CC1CC1)C2` [Compound 144], the Ki in assay [1] was < 50 nM; on TRKA-wt kinase domain, 50 to 500 nM; at ROS1-wt kinase domain, < 50 nM; in assay [2], < 50 nM; on ALK-wt kinase domain, < 50 nM.

The record behind these values is US11667649B2, “Heteroaromatic macrocyclic ether chemotherapeutic agents” (Nuvalent, Inc., priority 2020, dated 2023).
